{
  "source": "patent US8758769B2",
  "about": "“Composition for preventing and treating acetaminophen inducing liver injury comprising the protein extract from Porphyra yezoensis” (Pukyong National University Industry Academic Cooperation …, priority 2006, dated 2014)",
  "system": "caspase-3, PARP, Bcl-2 in liver cell",
  "test": "Western blot of cell apoptosis related proteins in liver cell treated by AAP",
  "assay_type": "cell-based",
  "conditions": "liver cell treated by AAP according to the concentration, 24 hours",
  "method": "Through the above results, since it is confirmed that the cell apoptosis of the liver cell is induced by AAP, the liver cell is treated by means of AAP according to the concentration and the western blot is executed to observe the expression modes of the protein related to the cell apoptosis. For this, a cell is cultured at a culture dish of 100-mm diameter until it become a confluent monolayer of a confluent state by a medium containing 10% FBS. Thereafter, the medium is replaced with a serum free medium and cultured for 24 hours. After 24 hours, each sample is treated by a serum free medium added according to the concentration and cultured for 24 hours. The culture solution is removed, then washed by the cold PBS solution, and thereafter the cell is recovered through the cell lysate buffer solution containing 1% triton. After the centrifugal process, 4× Laemmli sample buffer (13.3% SDS, 0.4M Tris, 0.013% bromopheno blue, 40% glycerol, pH 6.5) is added to the obtained upper layer solution by 1× of concentration and then an electrophoresis manner is performed in 12.5% SDS-polyacrylamid gel by means of Mighty Small II Apparatus (Hopper Science Instruments, USA). After the electrophoresis manner, the protein separated into the gel is transferred to Immobilon-P membrane (Milipore corporation, the pore size: 0.1[…], USA) by means of Semi-dry Transfer unit, Sigma, USA), reacted at the room temperature for 2 hours in 1×TBS (Tris-buffered saline; 20 mM Tris-base, 137 mM NaCl, 1M HCl) containing 1% BSA, and thereafter left for a night at 4° C. by a primary antibody. Thereafter, the protein is washed by three times at each 10 minutes by TBS-T (Tris-buffered saline, 0.1% Tween 20) and reacted at the room temperature for 1 hour together with the anti-rabbit or anti-mouse IgG-conjugated horseradish peroxide secondary antibody diluted by 1:20,000. […]",
  "data": [
    {"smiles": "CC(=O)Nc1ccc(O)cc1", "note": "[AAP, Acetaminophen]", "values": [
      {"measurement": "Caspase-3 cleavage/activity (western blot, FIG. 8)", "value": "cleaved and then the activity is increased"},
      {"measurement": "Expression of Bcl-2 (western blot, FIG. 8)", "value": "inhibited according to the increase of the AAP concentration"},
      {"measurement": "PARP cleavage (western blot, FIG. 8)", "value": "cleaved from 116 kDa to 85 kDa"}
    ]}
  ]
}
